From patent EP0746567B1, “NOVEL OPIOID PEPTIDES FOR THE TREATMENT OF PAIN AND USE THEREOF” (AstraZeneca AB, priority 1994, dated 2002) come the findings set out here.

The structures appear in SMILES notation. Non-standard residues stand in square brackets, D forms with d. Residues, ends and D or L forms follow the SMILES beside them.

The subject of the experiment is hot plate response. In words: Hot plate test (central analgesia). Type of experiment: in vivo. The following applies: mouse hot plate test, even at doses of 100mg/kg. The source says: It was thought that non-polar peptides pass more easily into the central nervous system than polar peptides by traversing the blood-brain barrier. […] This test is standard and known to persons skilled in the art. The test detects chemicals that exert a centrally mediated analgesic response.
The term "ED50" as shown in table 1 for the PBQ writhing assays is defined as the dose of drug which induces a 50% reduction in the number of writhes observed compared to the control.
PBQ (phenylbenzoquinone) induced writhing in mice is an assessment of both central and peripheral analgesia. For experimental protocol see Sigmund et al., Proc. Soc. Exp. Biol. Med., 95, p. 729 (1957). Central analgesia was determined by the inhibition of a hot plate response in mice. For experimental protocol see G. Woolfe and A. Macdonald, J. Pharmacol. Exp. Ther., 80, p.300 (1944). Assays measuring opioid receptor binding affinities for µ and δ receptors as well as GPI and MVD assays were determined through experimental protocol set out in Schiller et al., Biophys. Res. Commun., 85, p.1322 (1975). […]
The mice were individually evaluated for reaction time on the hot plate. […]
For each time reading, the average reaction time of the control group was multiplied by 1.5. […] The number of analgesic mice in a group determined the analgesic percentage of the compound for this reading.
(Hot-plate and tail-flick tests time the reaction to a heat stimulus.)

For `C[C@@H](NC(=O)[C@@H](N)Cc1ccc(O)cc1)C(=O)N[C@@H](Cc1ccccc1)C(=O)N[C@@H](Cc1ccccc1)C(N)=O` [TAPP, H-Tyr-D-Ala-Phe-Phe-NH2] (H-Y[dA]FF-NH2), the analgesic effect result was “lack of analgesic effect”.
